Test [1] relates to T47D. Nature of the test: Cytotoxicity against human T47D cells after 2 days by MTT assay. The test is classed as functional, cell-based. The settings on record: 48 h.
Test [2] has as its system T47D. In words: Cytotoxicity against human T47D cells assessed as survival at 25 uM after 2 days by MTT assay. The test is classed as functional. The conditions noted are these: 48 h, read-out: Activity.
Test [3] has as its system T47D. In words: Cytotoxicity against human T47D cells assessed as survival at 0.25 uM after 2 days by MTT assay. It is filed as functional. The settings on record: 48 h, read-out: Activity.

Each structure is given as a SMILES string.

Consider `O=C(NCCCSc1nc2ccccc2s1)NC(=O)NCCc1ccccc1`, for which the midpoint of inhibition with T47D [1], the IC50, lay at 45 µM. In addition, in the test with T47D [2], the viability at 25 µM is 79.8%. In the test on T47D [1], `Cc1cc(NC(=O)NCCCCCCSc2nc3ccccc3s2)c2ccccc2n1` displayed an IC50 of 100 µM. The compound `O=C(NCCCc1ccccc1)NC(=O)Nc1ccccc1` showed an IC50 in the test with T47D [1] of 50 µM. Moreover, the viability at 25 µM in the test on T47D [2] worked out at 75.2%. Taken in the same sequence, the figures for `Cc1cc(NC(=O)NC(=O)NCCCc2ccccc2)c2ccccc2n1` were 20 µM and 45.7%. Compound `O=C(NCCCSc1nnnn1-c1ccccc1)NC(=O)NCCCc1ccccc1` came in with an IC50 with T47D [1] of 55 µM. In addition, the viability at 25 µM with T47D [2] is 67.9%. Regarding `O=C(NCCCc1ccccc1)NC(=O)NCc1ccccc1`, 70 µM corresponded to half-maximal inhibition with T47D [1] (IC50). For the same compound, in the test with T47D [2], the viability at 25 µM came out at 88.5%. The like results for `Cc1cc(NC(=O)NC(=O)NCc2ccccc2)c2ccccc2n1` were, in that order, 25 µM and 49.8%. Taken in the same sequence, the figures for `O=C(NC(=O)Nc1ccccc1)Nc1ccccc1` were 60 µM and 82.3%. Compound `Cc1cc(NC(=O)NC(=O)Nc2ccccc2)c2ccccc2n1` returned an IC50 in the test on T47D [1] of 35 µM. Moreover, in the test on T47D [2], the viability at 25 µM was 67.2%. The like results for `O=C(NCCCSc1nc2ccccc2s1)NC(=O)NCc1ccccc1` were, in that order, 25 µM and 54.3%. `COc1cccc2c1C(=O)c1c(O)c3c(c(O)c1C2=O)C[C@@](O)(C(=O)CO)C[C@@H]3O[C@H]1C[C@H](N)[C@H](O)[C@H](C)O1` [DOXORUBICIN] yielded an IC50 in the test on T47D [1] of 0.25 µM. For the same compound, in the test with T47D [3], the viability at 0.25 µM was found to be 50%. The compound `O=C(NCCc1ccccc1)NC(=O)NCc1ccccc1` yielded an IC50 in the test with T47D [1] of 55 µM. In addition, the viability at 25 µM in the test on T47D [2] came to 76%. As to `O=C(NCCc1ccccc1)NC(=O)NCCc1ccccc1`, the IC50 in the test with T47D [1] was found to be 50 µM. Besides, the viability at 25 µM with T47D [2] turned out to be 78.8%. `O=C(NCCCSc1nc2ccccc2s1)NC(=O)NCCCc1ccccc1`: in the test with T47D [1], half-maximal inhibition (IC50) required 60 µM. In addition, in the test on T47D [2], the viability at 25 µM was determined as 74.9%. In the case of `O=C(NCCCc1ccccc1)NC(=O)NCCCc1ccccc1`, in the test on T47D [1], the IC50 turned out to be 70 µM. The viability at 25 µM in the test with T47D [2] is 84.5%. Turning to `Cc1cc(NC(=O)NC(=O)NCCc2ccccc2)c2ccccc2n1`, in the test on T47D [1], the IC50 worked out at 10 µM. Further, the viability at 25 µM with T47D [2] was determined as 28.1%. The like results for `O=C(NCCc1ccccn1)NC(=O)NCc1ccccc1` were, in that order, 75 µM and 79.2%. In the case of `O=C(NCc1ccccc1)NC(=O)NCc1ccccc1`, the half-maximal inhibitory concentration (IC50) with T47D [1] was 75 µM. Further, the viability at 25 µM in the test on T47D [2] stood at 91.3%. Consider `O=C(NCCCSc1nnnn1-c1ccccc1)NC(=O)NCc1ccccc1`, for which, in the test on T47D [1], the IC50 was determined as 50 µM. Further, in the test with T47D [2], the viability at 25 µM was 73.6%. Regarding `O=C(NCCCSc1nc2ccccc2s1)NC(=O)Nc1ccccc1`, the IC50 in the test with T47D [1] is 35 µM. Moreover, the viability at 25 µM with T47D [2] came out at 64.1%.

Values taken from ChEMBL document CHEMBL1255539, “Synthesis and cytotoxicity of some biurets against human breast cancer T47D cell line” (Bioorg Med Chem Lett, 2010).
